Laboratory results: patent US8394848B2, “Compounds that modulate intracellular calcium” (Calcimedica, Inc., priority 2008, dated 2013)

The compounds below were run on JR251 or RBL cells (assay: Store-operated calcium entry, either JR251 or RBL cells, or both).
Assay type: cell-based
Method in brief: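 Orai1/STIM1 stable cells: fluo-4-AM loaded, compound 30 min at RT in Ca2+-free HBSS, then CaCl2 added; IC50 from Peak-Basal FLIPR fluorescence. RBL-2H3 cells: compound 5 min, then thapsigargin (5.5× stock, 5.5 uM) 25 min, then calcium added; IC50 from Upslope (signal 7 s after calcium minus baseline).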

IC50, < 10 µM:
COc1cc(-c2csc(NC(=O)c3nc4ccccc4o3)c2C(=O)O)ccc1Cl [2-(benzo[d]oxazole-2-carboxamido)-4-(4-chloro-3-methoxyphenyl)thiophene-3-carboxylic acid]
CC(C(=O)Nc1scc(-c2ccc(Cl)cc2)c1C(=O)O)C(C)c1ccccc1 (stereo not drawn) [4-(4-chlorophenyl)-2-(2-methyl-3-phenylbutanamido)thiophene-3-carboxylic acid]
O=C(Nc1scc(-c2ccc3occc3c2)c1C(=O)O)c1cc2ccccc2o1 [2-(benzofuran-2-carboxamido)-4-(benzofuran-5-yl)thiophene-3-carboxylic acid]
O=C(Nc1scc(-c2ccc3c(c2)CCC3)c1C(=O)O)c1nc2ccccc2o1 [2-(benzo[d]oxazole-2-carboxamido)-4-(2,3-dihydro-1H-inden-5-yl)thiophene-3-carboxylic acid]
O=C(Nc1scc(-c2cc3cccc(O)c3o2)c1C(=O)O)c1cc2ccccn2n1 [4-(7-hydroxybenzofuran-2-yl)-2-(pyrazolo[1,5-a]pyridine-2-carboxamido)thiophene-3-carboxylic acid]
O=C(CCc1ccccc1)Nc1scc(-c2ccc(Br)cc2)c1C(=O)O [4-(4-bromophenyl)-2-(3-phenylpropanamido)thiophene-3-carboxylic acid]
O=C(Nc1scc(-c2ccc(Cl)cc2)c1C(=O)O)c1ccc2snnc2c1 [2-(benzo[d][1,2,3]thiadiazole-5-carboxamido)-4-(4-chlorophenyl)thiophene-3-carboxylic acid]
O=C(Nc1scc(-c2ccc(Cl)cc2)c1C(=O)O)c1ncc2ccccc2n1 [4-(4-chlorophenyl)-2-(quinazoline-2-carboxamido)thiophene-3-carboxylic acid]
O=C(Nc1scc(-c2ccc(Br)cc2)c1C(=O)O)c1cc2sccc2[nH]1 [4-(4-bromophenyl)-2-(4H-thieno[3,2-b]pyrrole-5-carboxamido)thiophene-3-carboxylic acid]
COc1c(C(=O)Nc2scc(-c3ccc(Cl)cc3)c2C(=O)O)csc1Cl [2-(5-chloro-4-methoxythiophene-3-carboxamido)-4-(4-chlorophenyl)thiophene-3-carboxylic acid]
N#Cc1c(Cl)ccc(-c2csc(NC(=O)c3cc4ccccc4o3)c2C(=O)O)c1Cl [2-(benzofuran-2-carboxamido)-4-(2,4-dichloro-3-cyanophenyl)thiophene-3-carboxylic acid]
O=C(Nc1scc(-c2ccc(Cl)cc2)c1C(=O)O)c1ccc2scnc2c1 [2-(benzo[d]thiazole-5-carboxamido)-4-(4-chlorophenyl)thiophene-3-carboxylic acid]
O=C(Nc1scc(-c2ccc(Br)cc2)c1C(=O)O)c1ccc2snnc2c1 [2-(benzo[d][1,2,3]thiadiazole-5-carboxamido)-4-(4-bromophenyl)thiophene-3-carboxylic acid]
O=C(Nc1scc(-c2ccc(Br)cc2)c1C(=O)O)c1cc2occc2[nH]1 [4-(4-bromophenyl)-2-(4H-furo[3,2-b]pyrrole-5-carboxamido)thiophene-3-carboxylic acid]
COc1ccc(CCC(=O)Nc2scc(-c3ccc(Br)cc3)c2C(=O)O)cc1 [4-(4-bromophenyl)-2-(3-(4-methoxyphenyl)propanamido)thiophene-3-carboxylic acid]
O=C(Nc1scc(-c2cc(F)c(F)c(F)c2)c1C(=O)O)c1cc2ccccc2o1 [2-(benzofuran-2-carboxamido)-4-(3,4,5-trifluorophenyl)thiophene-3-carboxylic acid]
Cc1ccc(-c2csc(NC(=O)c3nc4ccccc4s3)c2C(=O)O)cc1F [2-(benzo[d]thiazole-2-carboxamido)-4-(3-fluoro-4-methylphenyl)thiophene-3-carboxylic acid]
O=C(O)c1c(-c2ccc(Cl)cc2)csc1NC(=O)C1COc2ccccc2O1 (stereo not drawn) [4-(4-chlorophenyl)-2-(2,3-dihydrobenzo[b][1,4]dioxine-2-carboxamido)thiophene-3-carboxylic acid]
O=C(Nc1scc(-c2cc3cccc(O)c3o2)c1C(=O)O)c1nc2ccccc2s1 [2-(benzo[d]thiazole-2-carboxamido)-4-(7-hydroxybenzofuran-2-yl)thiophene-3-carboxylic acid]
O=C(Nc1scc(-c2cc3cccc(O)c3o2)c1C(=O)O)c1cc2cccc(O)c2o1 [2-(7-hydroxybenzofuran-2-carboxamido)-4-(7-hydroxybenzofuran-2-yl)thiophene-3-carboxylic acid]
Cc1cc(C#N)ccc1-c1csc(NC(=O)c2nc3ccccc3o2)c1C(=O)O [2-(benzo[d]oxazole-2-carboxamido)-4-(4-cyano-2-methylphenyl)thiophene-3-carboxylic acid]
O=C(CCc1cccs1)Nc1scc(-c2ccc(Cl)cc2)c1C(=O)O [4-(4-chlorophenyl)-2-(3-(thiophen-2-yl)propanamido)thiophene-3-carboxylic acid]
O=C(O)c1c(-c2ccc(Br)cc2)csc1NC(=O)C1Cc2cc(Cl)ccc2O1 (stereo not drawn) [4-(4-bromophenyl)-2-(5-chloro-2,3-dihydrobenzofuran-2-carboxamido)thiophene-3-carboxylic acid]
O=C(Nc1scc(-c2ccc(Cl)c(F)c2)c1C(=O)O)c1nc2cccc(F)c2o1 [4-(4-chloro-3-fluorophenyl)-2-(7-fluorobenzo[d]oxazole-2-carboxamido)thiophene-3-carboxylic acid]
Cc1ccc(C(=O)Nc2scc(-c3ccc(Cl)cc3)c2C(=O)O)cn1 [4-(4-chlorophenyl)-2-(6-methylnicotinamido)thiophene-3-carboxylic acid]
Cc1ccc(-c2csc(NC(=O)c3nc4ccccc4o3)c2C(=O)O)c(Cl)c1 [2-(benzo[d]oxazole-2-carboxamido)-4-(2-chloro-4-methylphenyl)thiophene-3-carboxylic acid]
Cc1ccc(-c2csc(NC(=O)c3cc4c(F)cccn4n3)c2C(=O)O)c(F)c1F [4-(2,3-difluoro-4-methylphenyl)-2-(4-fluoropyrazolo[1,5-a]pyridine-2-carboxamido)thiophene-3-carboxylic acid]
O=C(O)c1c(-c2ccc(Cl)cc2)csc1NC(=O)C1CCc2ccccc2C1 (stereo not drawn) [4-(4-chlorophenyl)-2-(1,2,3,4-tetrahydronaphthalene-2-carboxamido)thiophene-3-carboxylic acid]
COc1c(Cl)ccc(-c2csc(NC(=O)c3cc4ccccc4o3)c2C(=O)O)c1Cl [2-(benzofuran-2-carboxamido)-4-(2,4-dichloro-3-methoxyphenyl)thiophene-3-carboxylic acid]
O=C(Nc1scc(-c2ccc(Br)c(F)c2F)c1C(=O)O)c1nc2ccccc2o1 [2-(benzo[d]oxazole-2-carboxamido)-4-(4-bromo-2,3-difluorophenyl)thiophene-3-carboxylic acid]
Cc1ccc(-c2csc(NC(=O)c3nc4ccccc4s3)c2C(=O)O)c(F)c1F [2-(benzo[d]thiazole-2-carboxamido)-4-(2,3-difluoro-4-methylphenyl)thiophene-3-carboxylic acid]
O=C(Nc1scc(-c2ccc(Cl)cc2)c1C(=O)O)c1cc2occc2[nH]1 [4-(4-chlorophenyl)-2-(4H-furo[3,2-b]pyrrole-5-carboxamido)thiophene-3-carboxylic acid]
O=C(O)c1c(-c2ccc(Cl)cc2)csc1NC(=O)C(Cc1ccccc1)n1cnnn1 (stereo not drawn) [4-(4-chlorophenyl)-2-(3-phenyl-2-(1H-tetrazol-1-yl)propanamido)thiophene-3-carboxylic acid]
Cn1nc(C(=O)Nc2scc(-c3ccc(Cl)cc3)c2C(=O)O)cc1-c1ccccc1 [4-(4-chlorophenyl)-2-(1-methyl-5-phenyl-1H-pyrazole-3-carboxamido)thiophene-3-carboxylic acid]
Cc1ccc(-c2csc(NC(=O)c3nc4ccccc4o3)c2C(=O)O)c(F)c1 [2-(benzo[d]oxazole-2-carboxamido)-4-(2-fluoro-4-methylphenyl)thiophene-3-carboxylic acid]
O=C(CCc1ccc(F)c(F)c1)Nc1scc(-c2ccc(Br)cc2)c1C(=O)O [4-(4-bromophenyl)-2-(3-(3,4-difluorophenyl)propanamido)thiophene-3-carboxylic acid]
N#Cc1cc(-c2csc(NC(=O)c3nc4ccccc4o3)c2C(=O)O)ccc1Cl [2-(benzo[d]oxazole-2-carboxamido)-4-(4-chloro-3-cyanophenyl)thiophene-3-carboxylic acid]
O=C(Nc1scc(-c2ccc(Cl)cc2)c1C(=O)O)c1ccc(-c2ccc(Cl)cc2)o1 [4-(4-chlorophenyl)-2-(5-(4-chlorophenyl)furan-2-carboxamido)thiophene-3-carboxylic acid]
Cc1ccc(-c2csc(NC(=O)c3cc4ccccc4o3)c2C(=O)O)c(F)c1F [2-(benzofuran-2-carboxamido)-4-(2,3-difluoro-4-methylphenyl)thiophene-3-carboxylic acid]
Cc1ccc(-c2csc(NC(=O)c3cc(C)n(C)n3)c2C(=O)O)cc1 [2-(1,5-dimethyl-1H-pyrazole-3-carboxamido)-4-p-tolylthiophene-3-carboxylic acid]
COc1cc(F)c(-c2csc(NC(=O)c3cc4ccccc4o3)c2C(=O)O)c(F)c1 [2-(benzofuran-2-carboxamido)-4-(2,6-difluoro-4-methoxyphenyl)thiophene-3-carboxylic acid]
O=C(Nc1scc(-c2cc3cccc(O)c3o2)c1C(=O)O)c1nc2ccccc2o1 [2-(benzo[d]oxazole-2-carboxamido)-4-(7-hydroxybenzofuran-2-yl)thiophene-3-carboxylic acid]
